# Experimental data taken from US10632181B2, “Composition, containing RGD motif-containing peptide or fragment thereof, for treating burns and glaucoma, alleviating skin wrinkles, and promoting hair growth” (HUONS CO., LTD., priority 2014, dated 2020).
# Positions of bridges follow the written chain, without caps; N, C: chain ends. No end group written: not given here.
# Key:
# [1] = tested on: 2-degree burns of male SD rats; experiment: Burn treatment test: histopathology (H&E) of burn site; type: in vivo, SD (Sprague-Dawley) rats; conditions: score 0-4, 14th day after burn
# Method: The experiment was carried out with 55 male SD (Sprague-Dawley) rats that were divided into […] groups: 5 rats for normal group (1 group, G1), 9-10 rats for negative control (1 group, G2), 30 rats for experimental group (3 groups, 10 rats in each group, G3, G4, G5), and 9-10 rats for positive control (1 group, G6). In the remaining groups except normal group, burned male SD rats was used for experiment. After SD rats were anesthesized, 2-degree burns, 2 cm in diameter, were induced on the SD rats using an aluminum electric soldering iron.
# Test substance HU022 (SEQ ID NO:1) (G3, G4, G5), normal saline solution (G2) and Fiblast (G6) were applied to the skin of the burned male SD rats repeatedly once a day seven times a week for 7 days. Fiblast was applied to control group (G6) in 10 μg/dose/head, and the experimental group was divided into 3 groups and test substance was applied to each group in 3.3 μg/dose/head (G3), 10 μg/dose/head (G4), and 30 μg/dose/head (G5).
# On the 14th day after burn, the burn site on the back was scraped from the dermis and fixed in 10% neutrally buffered formalin solution, and histopathology test was conducted through H&E staining.
# With the measurement results, parametric comparison determined significance via Student's t-test and One-Way ANOVA, and significance testing relative to negative control was conducted. Furthermore, with the histopathology test results of burns, Kruskal-Wallis' H-test was conducted, and when significance between groups was identified, comparison between groups was performed through Mann-Whitney U-test. The computation program for statistics was SPSS 10.1 K. P<0.05 was determined to be statistically significant.
# skin = experiment: Safety assessment of test product on skin; conditions: use for 4 weeks, dermatologist's physical examination
# Method: Women aged 30-65 having wrinkles around eyes were tested. […] They had second and third visits at the interval of 2 weeks after the start of use, and at each visit, were required to respond to various types of assessment and investigation defined in the experiment.
# Furthermore, safety assessment was performed, and for safety of clinical test product, in all subjects having used the test product at least once, abnormal responses found at the second week and fourth week after use and abnormal responses reported during the test period were all used as safety assessment data of the product.
# [2] = Hair growth test: body weight; type: in vivo; conditions: skin
# Method: This test was conducted to assess the influence on hair growth of C57BL/6 mouse when 4 types of test substances, HU024 (SEQ ID NO:2), HU025 (SEQ ID NO:3), HU026 (SEQ ID NO:4), and HU027 (SEQ ID NO:5), were applied to the skin for 14 days.
# The group design was set to negative control (sterile water for injection G1), test substance HU024 (SEQ ID NO:2) 20 ug/head/day (G2), test substance HU024 (SEQ ID NO:2) 60 ug/head/day (G3), test substance HU025 (SEQ ID NO:3) 20 ug/head/day (G4), test substance HU025 (SEQ ID NO:3) 60 ug/head/day (G5), test substance HU026 (SEQ ID NO:4) 20 ug/head/day (G6), test substance HU026 (SEQ ID NO:4) 60 ug/head/day (G7), test substance HU027 (SEQ ID NO:5) 20 ug/head/day (G8), test substance HU027 (SEQ ID NO:5) 60 ug/head/day (G9) and positive control minoxyl 3% (G10) administered groups. Each group had 10 animals.
# After the animal was put under anesthesia using zoletil (1 mL/kg, i.p), the back of the animal was primarily shaved using a depilator, and Veet depilatory was evenly applied on the back. After about 5 minutes, the applied site was cleaned up using gauze moistened with sterile water for injection. Only animal whose shaved back was scarlet in color was used for group separation. The test substance was applied to the same site daily once per day, 7 times per week for 14 days, and the test substance was evenly applied to the shaved site (on the back) by rubbing with a glass rod about 10 times.
# The test item was measurements of dead animal, general syndrome, weight change, hair growing area and hair weight, and comparison with negative control was conducted.
# The measurement results were analyzed using SPSS (ver. 10.1K), Duncan t-test for weight changes was conducted through one-way analysis of variance, hair weight was compared between groups using Student's t-test, and hair growing area was compared between groups through nonparametric multiple comparison procedures Whitney-Mann methods. P<0.05 was determined to be statistically significant.
# [3] = tested on: glaucoma animal model having microbead-induced elevated intraocular pressure; experiment: Glaucoma test: intraocular pressure; type: in vivo, mouse; conditions: 20 ug/ml applied to eye once daily
# Method: For control drug, Taflotan eye drops (Santen Pharmaceutical Co., Ltd.) were used, and for test drug, Taflotan eye drops+HU024 (SEQ ID NO:2) (sample 1), HU024 (SEQ ID NO:2) (sample 2), HU025 (SEQ ID NO:3) (sample 3), HU026 (SEQ ID NO:4) (sample 4), and HU027 (SEQ ID NO:5) (sample 5) were used, and testing was performed on glaucoma animal model having microbead-induced elevated intraocular pressure. In experimental animal model, Rompun solution for injection and zoletil were mixed and used to put the experimental animal under anesthesia, topical anesthetic Alcaine was applied to eye, 1×106 microbead/mL 1 μL was injected into anterior chamber using micro glass needle to induce an increase in intraocular pressure for 2 weeks (IOVS 2011 Vol. 52 36-).
# The control drug and 5 samples were provided to the experimental animal having the elevated intraocular pressure for 2 weeks, 5 samples were applied to eye once daily, comparative verification of efficacy was performed, and intraocular pressure reduction and optic nerve cell in the retina was observed through administration for 4 weeks.
# The intraocular pressure was measured using a contact-type intraocular pressure meter Tono lab's tonometer TV02 model. […] In 5-7 days after fluorescent probe injection, the eye was enucleated and fixed in 4% paraformaldehyde at room temperature for 4 hours. The retina was separated from choroid of the fixed eye and mounted on a slide. In each experimental group slide, optic nerve cell expressing fluorescence was detected using fluorescence microscope, images were taken at a magnification of ×40 and ×200, and data was collected.
substance,measurement,setting,value
"HU022: polypeptide consisting of 452nd-509th amino acids of ADAM 15 (GenBank AAH14566.1), 58 amino acids; commercial product (EYEGENE Inc.)",Epidermal regeneration,[1]; 3.3 μg/head/day,0.1 ± 0.0 points
same,Eschar,[1]; 3.3 μg/head/day,4.0 ± 0.0 points
same,Fibroplasia (connective tissue growth),[1]; 3.3 μg/head/day,3.1 ± 0.3 points
same,Infiltration of Inflammatory cells,[1]; 3.3 μg/head/day,3.0 ± 0.0 points
same,Pilosebaceous (skin appendage regeneration),[1]; 3.3 μg/head/day,0.1 ± 0.3 points
same,Epidermal regeneration,[1]; 10 μg/head/day,0.6 ± 0.5 points
same,Eschar,[1]; 10 μg/head/day,3.2 ± 0.6 points
same,Fibroplasia (connective tissue growth),[1]; 10 μg/head/day,3.0 ± 0.5 points
same,Infiltration of Inflammatory cells,[1]; 10 μg/head/day,3.0 ± 0.0 points
same,Pilosebaceous (skin appendage regeneration),[1]; 10 μg/head/day,0.9 ± 1.1 points
same,Epidermal regeneration,[1]; 30 μg/head/day,0.6 ± 0.7 points
same,Eschar,[1]; 30 μg/head/day,2.7 ± 0.7 points
same,Fibroplasia (connective tissue growth),[1]; 30 μg/head/day,3.3 ± 0.5 points
same,Infiltration of Inflammatory cells,[1]; 30 μg/head/day,3.0 ± 0.0 points
same,Pilosebaceous (skin appendage regeneration),[1]; 30 μg/head/day,1.1 ± 1.0 points
same,abnormal response / skin irritation,skin,safe product not causing irritation to the skin
HU024 (RPTRGDCDLPEFCPG; disulfide 7-13; listed as Homo sapiens),BODY WEIGHTS,"[2]; 20 ug/head/day, Day 1",21.34 ± 0.60 g
same,BODY WEIGHTS,"[2]; 20 ug/head/day, Day 7",22.64 ± 0.76 g
same,BODY WEIGHTS,"[2]; 20 ug/head/day, Day 11",24.15 ± 0.86 g
same,BODY WEIGHTS,"[2]; 60 ug/head/day, Day 1",21.54 ± 0.53 g
same,BODY WEIGHTS,"[2]; 60 ug/head/day, Day 7",23.02 ± 0.74 g
same,BODY WEIGHTS,"[2]; 60 ug/head/day, Day 11",24.30 ± 1.08 g
same,intraocular pressure change,[3],A reduction in intraocular pressure was observed
